Measured values as given in ChEMBL document CHEMBL1153928, “Novel N-substituted 2-phenyl-1-sulfonylamino-cyclopropane carboxylates as selective ADAMTS-5 (Aggrecanase-2) inhibitors” (Bioorg Med Chem Lett, 2009).
Calls of active or inactive are those of the source. The calls are words filed in the database; no cut-off is given here.

Columns and labels:
[1] = target: T1, A disintegrin and metalloproteinase with thrombospondin motifs 5 (Homo sapiens) (UniProt Q9UNA0); assay: Inhibition of recombinant aggrecanase 2 at 10 uM
T1 sequence (whole entry): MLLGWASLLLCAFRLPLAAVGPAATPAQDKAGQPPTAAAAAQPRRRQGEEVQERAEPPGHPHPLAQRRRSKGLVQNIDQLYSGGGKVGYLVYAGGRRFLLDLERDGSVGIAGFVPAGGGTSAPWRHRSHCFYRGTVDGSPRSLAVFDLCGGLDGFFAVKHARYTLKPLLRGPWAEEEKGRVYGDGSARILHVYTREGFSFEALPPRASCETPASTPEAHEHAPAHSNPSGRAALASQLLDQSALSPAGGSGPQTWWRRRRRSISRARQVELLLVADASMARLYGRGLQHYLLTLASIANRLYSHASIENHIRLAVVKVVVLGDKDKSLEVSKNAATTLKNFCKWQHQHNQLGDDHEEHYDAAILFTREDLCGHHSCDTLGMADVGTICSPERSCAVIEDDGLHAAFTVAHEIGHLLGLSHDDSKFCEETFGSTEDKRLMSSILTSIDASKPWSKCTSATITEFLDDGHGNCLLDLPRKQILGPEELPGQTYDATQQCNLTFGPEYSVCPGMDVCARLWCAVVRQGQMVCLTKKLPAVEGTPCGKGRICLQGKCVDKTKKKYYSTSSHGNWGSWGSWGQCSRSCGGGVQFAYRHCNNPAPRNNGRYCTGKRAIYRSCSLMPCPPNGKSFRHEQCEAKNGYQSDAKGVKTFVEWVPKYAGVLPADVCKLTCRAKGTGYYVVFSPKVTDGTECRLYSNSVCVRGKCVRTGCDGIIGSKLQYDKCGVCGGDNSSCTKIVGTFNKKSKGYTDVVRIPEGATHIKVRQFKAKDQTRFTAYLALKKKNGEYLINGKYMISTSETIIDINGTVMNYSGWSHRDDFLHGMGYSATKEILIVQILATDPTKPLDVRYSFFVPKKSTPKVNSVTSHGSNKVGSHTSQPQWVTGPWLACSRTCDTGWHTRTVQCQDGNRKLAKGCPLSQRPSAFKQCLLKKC

[2] = target: T2, Interstitial collagenase (Homo sapiens) (UniProt P03956); assay: Inhibition of MMP1 at 10 uM
T2 sequence (whole entry): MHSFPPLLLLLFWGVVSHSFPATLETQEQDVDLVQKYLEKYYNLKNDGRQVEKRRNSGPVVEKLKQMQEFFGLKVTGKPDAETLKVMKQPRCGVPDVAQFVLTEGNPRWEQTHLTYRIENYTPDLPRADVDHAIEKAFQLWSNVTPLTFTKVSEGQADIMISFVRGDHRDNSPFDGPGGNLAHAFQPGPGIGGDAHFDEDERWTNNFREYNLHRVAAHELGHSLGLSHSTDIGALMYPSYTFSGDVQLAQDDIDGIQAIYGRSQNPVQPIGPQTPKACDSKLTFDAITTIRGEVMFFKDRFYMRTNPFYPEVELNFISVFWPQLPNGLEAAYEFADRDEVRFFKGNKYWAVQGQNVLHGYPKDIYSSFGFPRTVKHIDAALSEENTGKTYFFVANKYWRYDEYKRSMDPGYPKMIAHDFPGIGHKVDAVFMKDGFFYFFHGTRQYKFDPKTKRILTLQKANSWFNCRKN

[3] = target: Disintegrin and metalloproteinase domain-containing protein 17 (Homo sapiens) (UniProt P78536); assay: Inhibition of TACE at 10 uM
[4] = target: T3, A disintegrin and metalloproteinase with thrombospondin motifs 5 (Homo sapiens, UniProt Q9UNA0); assay: Inhibition of recombinant aggrecanase 2
T3 sequence (Q9UNA0 whole entry): T1 sequence (whole entry)

Sequence of Disintegrin and metalloproteinase domain-containing protein 17 (Homo sapiens) (P78536 whole entry, the tested form may be a part): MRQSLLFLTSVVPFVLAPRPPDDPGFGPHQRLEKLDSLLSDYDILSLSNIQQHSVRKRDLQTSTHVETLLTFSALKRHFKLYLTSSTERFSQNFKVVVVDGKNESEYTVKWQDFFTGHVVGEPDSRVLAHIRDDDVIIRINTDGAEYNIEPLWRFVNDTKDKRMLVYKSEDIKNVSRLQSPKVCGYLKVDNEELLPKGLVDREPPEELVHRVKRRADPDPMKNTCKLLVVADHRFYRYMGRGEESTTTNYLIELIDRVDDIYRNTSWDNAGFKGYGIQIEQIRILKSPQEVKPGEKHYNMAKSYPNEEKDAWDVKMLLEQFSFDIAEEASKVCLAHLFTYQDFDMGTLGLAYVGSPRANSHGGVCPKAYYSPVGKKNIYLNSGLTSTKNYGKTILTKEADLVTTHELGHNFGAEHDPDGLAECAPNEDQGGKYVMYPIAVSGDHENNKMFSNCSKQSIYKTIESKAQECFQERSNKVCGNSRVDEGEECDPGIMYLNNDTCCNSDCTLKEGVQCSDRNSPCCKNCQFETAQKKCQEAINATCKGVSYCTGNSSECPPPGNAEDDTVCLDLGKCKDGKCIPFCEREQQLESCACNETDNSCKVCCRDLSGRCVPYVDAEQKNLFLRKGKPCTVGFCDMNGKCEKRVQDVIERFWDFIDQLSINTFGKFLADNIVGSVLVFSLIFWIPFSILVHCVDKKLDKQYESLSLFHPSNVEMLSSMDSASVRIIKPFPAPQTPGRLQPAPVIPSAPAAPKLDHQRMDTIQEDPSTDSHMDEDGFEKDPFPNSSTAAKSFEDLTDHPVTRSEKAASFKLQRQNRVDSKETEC

| SMILES | inhibition [1] [%] | Activity [2] | Activity [3] | IC50 [4] [nM] |
| --- | --- | --- | --- | --- |
| O=C1CCCN1CCN([C@]1(C(=O)O)C[C@H]1c1ccccc1)S(=O)(=O)c1ccc(C#CCO)cc1 | -1.5 | – | – | – |
| O=C(O)[C@@H](Cc1ccccc1)N(Cc1ccccc1)S(=O)(=O)c1ccc(-c2ccc(Cl)cc2)cc1 | 30 | – | – | – |
| CC(=O)Nc1ccc(-c2ccc(S(=O)(=O)N(CCN3CCCC3=O)[C@]3(C(=O)O)C[C@H]3c3ccccc3)cc2)cc1 | – | – | – | 4500 |
| O=C(O)[C@@H](Cc1ccccc1)NS(=O)(=O)c1ccc(-c2ccc(Cl)cc2)cc1 | – | – | – | 3200 |
| O=C1CCCN1CCN([C@]1(C(=O)O)C[C@H]1c1ccccc1)S(=O)(=O)c1ccc(-c2ccncc2)cc1 | 18 | – | – | – |
| O=C(O)[C@@H](Cc1ccccc1)N(CC1CC1)S(=O)(=O)c1ccc(-c2ccc(Cl)cc2)cc1 | 46 | – | – | – |
| O=C(O)[C@@]1(N(CCn2ccnc2)S(=O)(=O)c2ccc(-c3ccc(Cl)cc3)cc2)C[C@H]1c1ccccc1 | – | inactive | inactive | 320 |
| COCC#Cc1ccc(S(=O)(=O)N(CCN2CCCC2=O)[C@]2(C(=O)O)C[C@H]2c2ccccc2)cc1 | 2.9 | – | – | – |
| O=C1CCCN1CCN([C@]1(C(=O)O)C[C@H]1c1ccccc1)S(=O)(=O)c1ccc(-c2ccc(Cl)cc2)nc1 | – | – | – | 1100 |
| O=C1CCCN1CCN([C@]1(C(=O)O)C[C@H]1c1ccccc1)S(=O)(=O)N1CC=C(c2ccc(Cl)cc2)CC1 | – | – | – | 880 |
| O=C(O)[C@@]1(N(CCc2ccncc2)S(=O)(=O)c2ccc(-c3ccc(Cl)cc3)cc2)C[C@H]1c1ccccc1 | – | inactive | inactive | 750 |
| C[C@@](Cc1ccccc1)(C(=O)O)N(CCN1CCCC1=O)S(=O)(=O)c1ccc(-c2ccc(Cl)cc2)cc1 | 0.1 | – | – | – |
| O=C(O)[C@@H](Cc1ccccc1)N(CCc1ccccc1)S(=O)(=O)c1ccc(-c2ccc(Cl)cc2)cc1 | – | – | – | 7300 |
| CN(C)c1ccc(-c2ccc(S(=O)(=O)N(CCN3CCCC3=O)[C@]3(C(=O)O)C[C@H]3c3ccccc3)cc2)cc1 | – | – | – | 6600 |
| O=C1CCC(=O)N1CCN([C@]1(C(=O)O)C[C@H]1c1ccccc1)S(=O)(=O)c1ccc(-c2ccc(Cl)cc2)cc1 | – | inactive | inactive | 310 |
| CN([C@H](Cc1ccccc1)C(=O)O)S(=O)(=O)c1ccc(-c2ccc(Cl)cc2)cc1 | – | – | – | 8000 |
| O=C(O)[C@@]1(N(CCc2ccccn2)S(=O)(=O)c2ccc(-c3ccc(Cl)cc3)cc2)C[C@H]1c1ccccc1 | – | inactive | inactive | 820 |
| CN([C@@H](Cc1ccccc1)C(=O)O)S(=O)(=O)c1ccc(-c2ccc(Cl)cc2)cc1 | -0.12 | – | – | – |
| O=C(O)[C@@H](Cc1ccccc1)N(CCN1CCCC1=O)S(=O)(=O)c1ccc(-c2ccc(Cl)cc2)cc1 | – | – | – | 1600 |
| O=C(O)[C@@H](Cc1ccccc1)N(CC1CCCCC1)S(=O)(=O)c1ccc(-c2ccc(Cl)cc2)cc1 | 22 | – | – | – |

Results, then the molecule that gave them:

| inhibition [1] [%] | Activity [2] | Activity [3] | IC50 [4] [nM] | SMILES |
| --- | --- | --- | --- | --- |
| – | inactive | inactive | 210 | O=C1CCCCN1CCN([C@]1(C(=O)O)C[C@H]1c1ccccc1)S(=O)(=O)c1ccc(-c2ccc(Cl)cc2)cc1 |
| – | inactive | inactive | 170 | O=C(O)[C@@]1(N(CCn2cnc3cncnc32)S(=O)(=O)c2ccc(-c3ccc(Cl)cc3)cc2)C[C@H]1c1ccccc1 |
| – | inactive | inactive | 190 | O=C(O)[C@@]1(N(CCn2cnnc2)S(=O)(=O)c2ccc(-c3ccc(Cl)cc3)cc2)C[C@H]1c1ccccc1 |
| – | inactive | inactive | 180 | O=C1OCCCN1CCN([C@]1(C(=O)O)C[C@H]1c1ccccc1)S(=O)(=O)c1ccc(-c2ccc(Cl)cc2)cc1 |
| – | inactive | inactive | 220 | O=C1OCCN1CCN([C@]1(C(=O)O)C[C@H]1c1ccccc1)S(=O)(=O)c1ccc(-c2ccc(Cl)cc2)cc1 |
| – | inactive | inactive | 230 | COC(=O)c1cncn1CCN([C@]1(C(=O)O)C[C@H]1c1ccccc1)S(=O)(=O)c1ccc(-c2ccc(Cl)cc2)cc1 |
| – | inactive | inactive | 180 | O=C(O)[C@@]1(N(CCn2cncn2)S(=O)(=O)c2ccc(-c3ccc(Cl)cc3)cc2)C[C@H]1c1ccccc1 |
| – | inactive | inactive | 71 | O=C(O)[C@@]1(N(CCn2cnc3ncncc32)S(=O)(=O)c2ccc(-c3ccc(Cl)cc3)cc2)C[C@H]1c1ccccc1 |
| – | inactive | inactive | 260 | O=C(O)[C@@]1(N(CCn2nccn2)S(=O)(=O)c2ccc(-c3ccc(Cl)cc3)cc2)C[C@H]1c1ccccc1 |
| – | inactive | inactive | 270 | O=C(O)[C@@]1(N(CCn2cnnn2)S(=O)(=O)c2ccc(-c3ccc(Cl)cc3)cc2)C[C@H]1c1ccccc1 |
| – | inactive | inactive | 78 | COc1cccn(CCN([C@]2(C(=O)O)C[C@H]2c2ccccc2)S(=O)(=O)c2ccc(-c3ccc(Cl)cc3)cc2)c1=O |
| – | inactive | inactive | 270 | O=C(O)[C@@]1(N(CCn2ccnn2)S(=O)(=O)c2ccc(-c3ccc(Cl)cc3)cc2)C[C@H]1c1ccccc1 |
| – | inactive | inactive | 290 | O=C(O)[C@@]1(N(CCc2cccnc2)S(=O)(=O)c2ccc(-c3ccc(Cl)cc3)cc2)C[C@H]1c1ccccc1 |
| – | inactive | inactive | 200 | O=C1CCCN1CCN([C@]1(C(=O)O)C[C@H]1c1ccccc1)S(=O)(=O)c1ccc(-c2ccc(Cl)cc2)cc1 |
| – | inactive | inactive | 73 | COC(=O)c1cn(CCN([C@]2(C(=O)O)C[C@H]2c2ccccc2)S(=O)(=O)c2ccc(-c3ccc(Cl)cc3)cc2)cn1 |
